In patent US20050191315A1 (priority 2002, published 2005):

Key:
Assay type in all cases: cell-based, human
[1] = tested on: SEB transcytosis across T-84 cell monolayers
[2] = tested on: SEA transcytosis across T-84 cell monolayers
[3] = tested on: SEE transcytosis across T-84 cell monolayers
[4] = tested on: TSST-1 transcytosis across T-84 cell monolayers

KKKVTAQELD [SEB 152-161]
movement of SEB across the monolayers reduced by [1]: 85%
transcytosis of SEA reduced [2]: 73%
transcytosis of SEE reduced [3]: 68%
transcytosis of TSST-1 reduced [4]: 59%
